Assay results: patent publication US8183238B2, “Bicyclic and tricyclic compounds as KAT II inhibitors” (priority 2009, dated 2012)
Where a name gives a salt, the structure may show the parent alone.

target: human KAT II (hKAT II) enzyme (Homo sapiens, UniProt Q8N5Z0); test: KAT II Inhibition Spectra Assay; format: biochemical; conditions: not given
Protocol: Formation of kynurenic acid (KYNA) is indirectly assessed by a decrease in light absorbance at 370 nm (OD370) as the L-kynurenine (KYN) substrate is converted by the human KAT II (hKAT II) enzyme into KYNA. An inhibitor would therefore inhibit the decrease in OD370.
The protocol was performed by placing the following reagents into a Costar 384 well black plate (30 μL total assay volume/well): • 10 μL of 3× concentrated compound; • 10 μL of 3× concentrated substrate mix (BGG (Sigma G-5009); 3 mM L-Kynurenine in 150 mM Tris Acetate (Sigma K3750); 3 mM α-ketoglutaric acid in 150 mM Tris Acetate (Sigma K2010); and 210 μM pyridoxal 5-phosphate (PLP) in 150 mM Tris Acetate (Sigma 9255)); and • 10 μL of 3× concentrated enzyme (15 nM enzyme in 150 mM Tris Acetate with 0.3% bovine serum).
Plates were sealed and incubated at 37° C. for 15-20 h before reading OD370 on a SpectraMax Plus plate reader. IC50s were generated by comparing the efficacy of compounds across a concentration range to inhibit a reduction in the OD370 value relative to assay wells with DMSO added in place of concentrated compound.

Chain of human KAT II (hKAT II) enzyme (Q8N5Z0 30-425): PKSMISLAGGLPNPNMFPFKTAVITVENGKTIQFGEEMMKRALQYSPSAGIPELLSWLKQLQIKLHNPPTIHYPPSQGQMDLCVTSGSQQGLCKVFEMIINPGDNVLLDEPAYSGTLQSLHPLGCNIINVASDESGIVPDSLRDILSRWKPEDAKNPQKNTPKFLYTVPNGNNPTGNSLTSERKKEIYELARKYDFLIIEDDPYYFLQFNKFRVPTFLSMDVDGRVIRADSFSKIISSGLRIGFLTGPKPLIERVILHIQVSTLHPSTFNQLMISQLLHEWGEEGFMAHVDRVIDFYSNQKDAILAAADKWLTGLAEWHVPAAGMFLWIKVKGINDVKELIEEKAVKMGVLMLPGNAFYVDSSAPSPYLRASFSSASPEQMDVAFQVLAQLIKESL

| Structure (SMILES) | IC50 [nM] |
| --- | --- |
| CN(C)C(=O)ON1C(=O)[C@@H](N)Cc2ccccc21 [Example 73, (3S)-3-amino-1-[(dimethylcarbamoyl)oxy]-3,4-dihydroquinolin-2(1H)-one, hydrochloride salt] | 1090 |

same assay, conditions: Table 5; hKAT II, decrease in OD370, 37° C., 15-20 h; read-out: KATII IC50

| Structure (SMILES) | IC50 [nM] |
| --- | --- |
| COc1ccc(-c2ccc3c(c2)N(O)C(=O)C(N)C3)cc1F (stereo not drawn) [Example 49, 3-amino-7-(3-fluoro-4-methoxyphenyl)-1-hydroxy-3,4-dihydroquinolin-2(1H)-one, trifluoroacetate salt] | 105 |
| NC1Cc2ccc(-c3cc(F)ccc3F)cc2N(O)C1=O (stereo not drawn) [Example 50, 3-amino-7-(2,5-difluorophenyl)-1-hydroxy-3,4-dihydroquinolin-2(1H)-one, trifluoroacetate salt] | 103 |
| NC1Cc2ccc(-c3ccco3)cc2N(O)C1=O (stereo not drawn) [Example 51, 3-amino-7-(2-furyl)-1-hydroxy-3,4-dihydroquinolin-2(1H)-one, trifluoroacetate salt] | 101 |
| NC1Cc2ccc(-c3cccc(Cl)c3)cc2N(O)C1=O (stereo not drawn) [Example 52, 3-amino-7-(3-chlorophenyl)-1-hydroxy-3,4-dihydroquinolin-2(1H)-one, trifluoroacetate salt] | 139 |
| NC1Cc2ccc(-c3ccc(C(F)(F)F)cc3)cc2N(O)C1=O (stereo not drawn) [Example 53, 3-amino-1-hydroxy-7-[4-(trifluoromethyl)phenyl]-3,4-dihydroquinolin-2(1H)-one, trifluoroacetate salt] | 206 |
| NC1Cc2ccc(-c3cc(Cl)ccc3F)cc2N(O)C1=O (stereo not drawn) [Example 54, 3-amino-7-(5-chloro-2-fluorophenyl)-1-hydroxy-3,4-dihydroquinolin-2(1H)-one, trifluoroacetate salt] | 137 |
| CC(C)c1ccc(-c2ccc3c(c2)N(O)C(=O)C(N)C3)cc1 (stereo not drawn) [Example 55, 3-amino-1-hydroxy-7-(4-isopropylphenyl)-3,4-dihydroquinolin-2(1H)-one, trifluoroacetate salt] | 141 |
| COc1ccc(-c2ccc3c(c2)N(O)C(=O)C(N)C3)cc1 (stereo not drawn) [Example 56, 3-amino-1-hydroxy-7-(4-methoxyphenyl)-3,4-dihydroquinolin-2(1H)-one, trifluoroacetate salt] | 91.1 |
| CCOc1ccccc1-c1ccc2c(c1)N(O)C(=O)C(N)C2 (stereo not drawn) [Example 57, 3-amino-7-(2-ethoxyphenyl)-1-hydroxy-3,4-dihydroquinolin-2(1H)-one, trifluoroacetate salt] | 102 |
| NC1Cc2ccc(-c3cc(Cl)cc(Cl)c3)cc2N(O)C1=O (stereo not drawn) [Example 58, 3-amino-7-(3,5-dichlorophenyl)-1-hydroxy-3,4-dihydroquinolin-2(1H)-one, trifluoroacetate salt] | 174 |
| COc1ccc(F)cc1-c1ccc2c(c1)N(O)C(=O)C(N)C2 (stereo not drawn) [Example 59, 3-amino-7-(5-fluoro-2-methoxyphenyl)-1-hydroxy-3,4-dihydroquinolin-2(1H)-one, trifluoroacetate salt] | 156 |
| CC(C)Oc1ccc(-c2ccc3c(c2)N(O)C(=O)C(N)C3)cc1 (stereo not drawn) [Example 60, 3-amino-1-hydroxy-7-(4-isopropoxyphenyl)-3,4-dihydroquinolin-2(1H)-one, trifluoroacetate salt] | 161 |
| NC1Cc2ccc(-c3ccc(OC(F)(F)F)cc3)cc2N(O)C1=O (stereo not drawn) [Example 61, 3-amino-1-hydroxy-7-[4-(trifluoromethoxy)phenyl]-3,4-dihydroquinolin-2(1H)-one, trifluoroacetate salt] | 162 |
| N#Cc1ccccc1-c1ccc2c(c1)N(O)C(=O)C(N)C2 (stereo not drawn) [Example 62, 2-(3-amino-1-hydroxy-2-oxo-1,2,3,4-tetrahydroquinolin-7-yl)benzonitrile, trifluoroacetate salt] | 135 |
| Cc1cccc(-c2ccc3c(c2)N(O)C(=O)C(N)C3)c1 (stereo not drawn) [Example 63, 3-amino-1-hydroxy-7-(3-methylphenyl)-3,4-dihydroquinolin-2(1H)-one, trifluoroacetate salt] | 113 |
| COc1ccc(-c2ccc3c(c2)N(O)C(=O)C(N)C3)cc1C (stereo not drawn) [Example 64, 3-amino-1-hydroxy-7-(4-methoxy-3-methylphenyl)-3,4-dihydroquinolin-2(1H)-one, trifluoroacetate salt] | 141 |
| NC1Cc2ccc(-c3ccc4c(c3)CCO4)cc2N(O)C1=O (stereo not drawn) [Example 65, 3-amino-7-(2,3-dihydro-1-benzofuran-5-yl)-1-hydroxy-3,4-dihydroquinolin-2(1H)-one, trifluoroacetate salt] | 155 |

same assay, conditions: Table 6; hKAT II, decrease in OD370, 37° C., 15-20 h; read-out: KATII IC50

| Structure (SMILES) | IC50 [nM] |
| --- | --- |
| N[C@H]1Cc2cc(Oc3ccccc3)cnc2N(O)C1=O [Example 66, (3S)-3-amino-1-hydroxy-6-phenoxy-3,4-dihydro-1,8-naphthyridin-2(1H)-one] | 23.1 |
| N[C@H]1Cc2cc(S(=O)(=O)c3ccccc3)ccc2N(O)C1=O [Example 67, (3S)-3-amino-1-hydroxy-6-(phenylsulfonyl)-3,4-dihydroquinolin-2(1H)-one, hydrochloride salt] | 42.1 |
| N[C@H]1Cc2cc(Cc3ccccc3)ccc2N(O)C1=O [Example 68, (3S)-3-amino-6-benzyl-1-hydroxy-3,4-dihydroquinolin-2(1H)-one, trifluoroacetic acid salt] | 42.7 |
| NC1Cc2cc(Oc3ccccc3Cl)ccc2N(O)C1=O (stereo not drawn) [Example 69, 3-amino-6-(2-chlorophenoxy)-1-hydroxy-3,4-dihydroquinolin-2(1H)-one, hydrochloride salt] | 43.3 |
| N#Cc1cccc(Oc2ccc3c(c2)C[C@H](N)C(=O)N3O)c1 [Example 70, 3-{[(3S)-3-amino-1-hydroxy-2-oxo-1,2,3,4-tetrahydroquinolin-6-yl]oxy}benzonitrile, hydrochloride salt] | 24.6 |
| N[C@H]1Cc2cccc(CN3CCOCC3)c2N(O)C1=O [Example 74, (3S)-3-amino-1-hydroxy-8-(morpholin-4-ylmethyl)-3,4-dihydroquinolin-2(1H)-one, trifluoroacetic acid salt] | 151 |
| COc1cc2c(cc1Cc1ccccc1)C[C@H](N)C(=O)N2O [Example 75, (3S)-3-amino-6-benzyl-1-hydroxy-7-methoxy-3,4-dihydroquinolin-2(1H)-one, hydrochloride salt] | 35.2 |
| CN(Cc1ccc2c(c1)C[C@H](N)C(=O)N2O)c1ccccc1 [Example 76, (3S)-3-amino-1-hydroxy-6-{[methyl(phenyl)amino]methyl}-3,4-dihydroquinolin-2(1H)-one] | 34.6 |
| N[C@H]1Cc2cccc(Oc3ccccc3)c2N(O)C1=O [Example 77] | 80.1 |
| COc1cccc(Oc2ccc3c(c2)C[C@H](N)C(=O)N3O)c1 [Example 78] | 17.3 |
| N[C@H]1Cc2cc(Oc3cccc(C(F)(F)F)c3)cnc2N(O)C1=O [Example 79] | 29.5 |
| COc1cccc(Oc2cnc3c(c2)C[C@H](N)C(=O)N3O)c1 [Example 80] | 31.1 |
| N[C@H]1Cc2ccc3c(c2N(O)C1=O)CCO3 [Example 81] | 212 |
| N#Cc1ccccc1Oc1ccc2c(c1)CC(N)C(=O)N2O (stereo not drawn) [Example 82] | 41.1 |
| COc1cc2c(cc1Cc1cccc(C(F)(F)F)c1)C[C@H](N)C(=O)N2O [Example 83] | 39.7 |
| NC1Cc2cc(Oc3ccc(O)nc3)ccc2N(O)C1=O (stereo not drawn) [Example 84] | 41.1 |
| NC1Cc2cc(Oc3ccc(F)cc3F)ccc2N(O)C1=O (stereo not drawn) [Example 85] | 39.9 |
| NC1Cc2cc(F)cc(Oc3ccccc3)c2N(O)C1=O (stereo not drawn) [Example 86] | 65 |
